Source: ChEMBL document CHEMBL4402595, “Discovery of Orally Bioavailable Chromone Derivatives as Potent and Selective BRD4 Inhibitors: Scaffold Hopping, Optimization, and Pharmacological Evaluation” (J Med Chem, 2020)

Key:
[1] = molecular target: T1, Bromodomain-containing protein 4 (Homo sapiens, UniProt O60885); experiment: Inhibition of BRD4 in poly(I:C)-stimulated human SAECs TLR3-inducible IL-6 gene expression pre-incubated for 24 hrs before poly(I:C) stimulation for 4 hrs by qRT-PCR analysis
[2] = molecular target: T1, Bromodomain-containing protein 4; experiment: Inhibition of BRD4 in poly(I:C)-stimulated human SAECs TLR3-inducible IL-6 gene expression at 10 uM pre-incubated for 24 hrs before poly(I:C) stimulation for 4 hrs by qRT-PCR analysis relative to control
[3] = molecular target: T1, Bromodomain-containing protein 4; experiment: Binding affinity to recombinant BRD4 BD2 (unknown origin) incubated for 1 hr by TR-FRET assay
[4] = molecular target: T1, Bromodomain-containing protein 4; experiment: Inhibition of BRD4 in poly(I:C)-stimulated human SAECs TLR3-inducible CIG5 gene expression pre-incubated for 24 hrs before poly(I:C) stimulation for 4 hrs by qRT-PCR analysis
[5] = molecular target: T1, Bromodomain-containing protein 4; experiment: Inhibition of BRD4 in poly(I:C)-stimulated human SAECs TLR3-inducible CIG5 gene expression at 10 uM pre-incubated for 24 hrs before poly(I:C) stimulation for 4 hrs by qRT-PCR analysis relative to control
[6] = molecular target: Bromodomain-containing protein 2 (Homo sapiens, UniProt P25440); experiment: Binding affinity to recombinant BRD2 BD2 (unknown origin) incubated for 1 hr by TR-FRET assay
Bromodomain-containing protein 2, sequence (P25440 whole entry): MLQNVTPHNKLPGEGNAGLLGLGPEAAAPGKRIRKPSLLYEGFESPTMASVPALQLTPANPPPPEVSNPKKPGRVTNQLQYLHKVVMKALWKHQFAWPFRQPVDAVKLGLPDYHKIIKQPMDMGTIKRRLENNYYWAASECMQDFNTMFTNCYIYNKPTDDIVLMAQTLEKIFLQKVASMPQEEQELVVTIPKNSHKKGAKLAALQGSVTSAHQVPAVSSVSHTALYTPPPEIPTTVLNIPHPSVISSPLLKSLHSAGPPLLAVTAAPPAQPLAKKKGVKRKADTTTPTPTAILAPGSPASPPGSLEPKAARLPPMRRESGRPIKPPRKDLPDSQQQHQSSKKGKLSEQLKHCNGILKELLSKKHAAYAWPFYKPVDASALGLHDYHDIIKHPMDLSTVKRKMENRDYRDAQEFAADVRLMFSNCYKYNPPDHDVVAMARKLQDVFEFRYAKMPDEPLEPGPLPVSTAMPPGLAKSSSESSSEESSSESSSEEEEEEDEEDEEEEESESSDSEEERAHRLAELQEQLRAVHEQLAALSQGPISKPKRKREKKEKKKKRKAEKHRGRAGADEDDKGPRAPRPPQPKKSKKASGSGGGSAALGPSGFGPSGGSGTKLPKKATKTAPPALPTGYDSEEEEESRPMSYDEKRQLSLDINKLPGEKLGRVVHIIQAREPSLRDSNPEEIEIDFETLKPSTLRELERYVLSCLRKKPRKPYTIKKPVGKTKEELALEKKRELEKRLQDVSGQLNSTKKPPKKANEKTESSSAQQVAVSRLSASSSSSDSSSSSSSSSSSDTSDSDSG

CYP2C19 = CYP2C19 (Homo sapiens, UniProt P33261); experiment: Inhibition of CYP2C19 (unknown origin) at 10 uM relative to control; type: ADME
CYP2C19, sequence (P33261 whole entry): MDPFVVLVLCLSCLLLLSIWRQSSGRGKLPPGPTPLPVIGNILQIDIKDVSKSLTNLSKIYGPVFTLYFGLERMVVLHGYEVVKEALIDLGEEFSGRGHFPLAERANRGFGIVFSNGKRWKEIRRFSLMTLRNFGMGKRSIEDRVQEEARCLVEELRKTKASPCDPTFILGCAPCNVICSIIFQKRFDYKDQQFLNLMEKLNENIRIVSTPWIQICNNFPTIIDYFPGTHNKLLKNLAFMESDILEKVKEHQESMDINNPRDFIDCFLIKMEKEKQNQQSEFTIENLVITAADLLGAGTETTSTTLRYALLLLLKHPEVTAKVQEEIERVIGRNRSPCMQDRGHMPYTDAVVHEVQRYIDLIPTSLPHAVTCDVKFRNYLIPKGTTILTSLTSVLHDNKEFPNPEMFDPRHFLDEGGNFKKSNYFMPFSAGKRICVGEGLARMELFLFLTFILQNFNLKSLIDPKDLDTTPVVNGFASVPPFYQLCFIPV

[7] = molecular target: Voltage-gated inwardly rectifying potassium channel KCNH2 (Homo sapiens, UniProt Q12809); experiment: Inhibition of human ERG
Voltage-gated inwardly rectifying potassium channel KCNH2, sequence (Q12809 whole entry): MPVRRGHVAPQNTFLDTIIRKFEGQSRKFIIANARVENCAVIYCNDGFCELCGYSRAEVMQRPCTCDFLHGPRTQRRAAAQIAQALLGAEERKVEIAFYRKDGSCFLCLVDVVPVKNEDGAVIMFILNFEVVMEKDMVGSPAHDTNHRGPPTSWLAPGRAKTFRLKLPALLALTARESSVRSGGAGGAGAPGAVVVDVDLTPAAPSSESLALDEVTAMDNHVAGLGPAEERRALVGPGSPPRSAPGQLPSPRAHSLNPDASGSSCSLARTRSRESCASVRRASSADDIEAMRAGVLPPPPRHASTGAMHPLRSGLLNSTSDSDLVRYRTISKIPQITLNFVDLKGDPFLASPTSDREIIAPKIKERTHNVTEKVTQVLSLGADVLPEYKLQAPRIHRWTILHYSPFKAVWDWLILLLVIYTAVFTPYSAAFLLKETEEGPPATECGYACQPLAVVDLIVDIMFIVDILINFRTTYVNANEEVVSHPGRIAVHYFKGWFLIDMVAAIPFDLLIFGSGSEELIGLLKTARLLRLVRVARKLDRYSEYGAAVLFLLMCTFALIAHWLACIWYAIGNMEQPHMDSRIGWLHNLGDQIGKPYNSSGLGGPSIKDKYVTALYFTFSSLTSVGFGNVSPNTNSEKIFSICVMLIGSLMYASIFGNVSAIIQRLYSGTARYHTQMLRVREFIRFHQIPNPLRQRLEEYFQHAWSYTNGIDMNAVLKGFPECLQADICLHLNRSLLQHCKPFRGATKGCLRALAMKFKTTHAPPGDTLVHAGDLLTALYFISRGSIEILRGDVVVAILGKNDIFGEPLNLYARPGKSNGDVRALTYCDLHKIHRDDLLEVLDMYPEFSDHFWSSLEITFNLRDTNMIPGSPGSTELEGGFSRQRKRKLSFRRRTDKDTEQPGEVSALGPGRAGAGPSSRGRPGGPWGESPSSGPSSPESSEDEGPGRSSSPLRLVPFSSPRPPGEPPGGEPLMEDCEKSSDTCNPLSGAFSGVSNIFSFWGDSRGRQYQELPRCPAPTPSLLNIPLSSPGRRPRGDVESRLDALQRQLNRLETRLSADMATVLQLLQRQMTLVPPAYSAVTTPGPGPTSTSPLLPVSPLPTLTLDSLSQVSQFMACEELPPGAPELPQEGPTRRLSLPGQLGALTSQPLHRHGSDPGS

[8] = Clearance in human liver microsomes; type: ADME, Microsome

Compound	IC50 [1] [nM]	inhibition [2] [%]	IC50 [3] [nM]	IC50 [4] [nM]	inhibition [5] [%]	IC50 [6] [nM]	inhibition at 10 µM (CYP2C19) [%]	IC50 [7] [µM]	CLH [8] [µL/min/mg]
COc1cc(OC)c2c(=O)cc(-c3cc(C)c(OC[C@H](O)CN4CCCCC4)c(C)c3)oc2c1	1100	100	684	520	99	845			
COc1cc(OC)c2c(=O)cc(-c3cc(C)c(OC[C@H](O)CN4CCN(C)CC4)c(C)c3)oc2c1							1.7	> 30	5.6
